ChEMBL document CHEMBL3137667, “[Drug-induced liver injury; fourteenth updated edition of the bibliographic database of liver injuries and related drugs]” (Gastroenterol Clin Biol, 2004)

Legend:
[1] = Highest frequency of acute liver toxicity observed during clinical trials, expressed as a percentage. [column '% AIGUE' in source]; conditions: human
[2] = human
[3] = human; remark: listed apart in the source
[4] = human, serum, 4383 h
[5] = human; remark: listed apart in the source
[6] = Highest frequency of moderate liver toxicity observed during clinical trials, expressed as a percentage. [column '% BIOL' in source]; conditions: human
[7] = human; remark: listed apart in the source
[8] = human; remark: listed apart in the source
[9] = human; remark: listed apart in the source
[10] = human; remark: listed apart in the source
[11] = Presence of at least one case with successful reintroduction. [column 'REINT' in source]; conditions: human
[12] = human; remark: listed apart in the source
[13] = human; remark: listed apart in the source
[14] = human, serum
[15] = human, serum; remark: listed apart in the source
[16] = Times to onset, minimal and maximal, observed in the indexed observations. [column 'DELAI' in source]; conditions: human
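For Hepatotoxicity (association with vascular disease) in this document: count of indexed literature references reporting vascular liver injury in humans, e.g. peliosis hepatitis, hepatic veno-occlusive disease or Budd-Chiari syndrome.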
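For Hepatotoxicity (benign tumour) in this document: value is a count of indexed literature references citing a benign tumour confirmed by histopathology.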
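For Hepatotoxicity (choleostasis) in this document: human cholestatic liver injury, shown by histopathology or by peak ALT or AST elevation over alkaline phosphatase ratio below 2, value counts indexed literature reports.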
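For Hepatotoxicity (chronic liver disease) in this document: chronic liver injury confirmed by histopathology or persistently raised serum aminotransferase activity beyond 6 months, value given as the count of indexed literature references.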
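For Hepatotoxicity (cirrhosis) in this document: value is a count of indexed literature references reporting cirrhosis confirmed by histopathology.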
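For Hepatotoxicity (cytolytic) in this document: human cytolytic liver injury, shown by histopathology or by a ratio above 5 of peak ALT or AST elevation to alkaline phosphatase elevation, value counts indexed references.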
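For Hepatotoxicity (granulomatous hepatitis) in this document: value is a count of indexed literature references reporting granulomatous liver disease confirmed by histopathology.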
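For Hepatotoxicity (malignant tumour) in this document: malignant tumour confirmed by histopathology, value gives the count of indexed literature references reporting it.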
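For Hepatotoxicity (severe hepatitis) in this document: human clinical data: severe hepatitis, meaning potentially life-threatening liver failure or clinically observed cases, the value counts how many indexed literature references report it.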
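For Hepatotoxicity (steatosis) in this document: steatosis confirmed by histopathology, value is the count of indexed references.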

Structure (SMILES): CC(=O)O[C@H]1CC[C@H]2[C@@H]3CC[C@H]4CC(=O)C=C(C)[C@]4(C)[C@H]3CC[C@]12C [METHENOLONE ACETATE]
- Hepatotoxicity (acute) [1]: 0%
- Hepatotoxicity (choleostasis) [2]: 0
- Hepatotoxicity (severe hepatitis) [3]: 0
- Hepatotoxicity (chronic liver disease) [4]: 0
- Hepatotoxicity (benign tumour) [5]: 1
- Hepatotoxicity (moderate) [6]: 0%
- Hepatotoxicity (malignant tumour) [7]: 1
- Hepatotoxicity (granulomatous hepatitis) [8]: 0
- Hepatotoxicity (association with vascular disease) [9]: 0
- Hepatotoxicity (steatosis) [10]: 0
- Hepatotoxicity (successful reintroduction) [11]: yes
- Hepatotoxicity (cytolytic) [12]: 0
- Hepatotoxicity (cirrhosis) [13]: 0
- Hepatotoxicity (acute) [14]: 5
- Hepatotoxicity (moderate) [15]: 1
- Hepatotoxicity (time to onset) [16]: 1 month - 15 years

Structure (SMILES): COC(=O)C(c1ccccc1)C1CCCCN1 (stereo not drawn) [METHYLPHENIDATE]
- Hepatotoxicity (acute) [1]: 0%
- Hepatotoxicity (choleostasis) [2]: 0
- Hepatotoxicity (severe hepatitis) [3]: 2
- Hepatotoxicity (chronic liver disease) [4]: 0
- Hepatotoxicity (benign tumour) [5]: 0
- Hepatotoxicity (moderate) [6]: 0%
- Hepatotoxicity (malignant tumour) [7]: 0
- Hepatotoxicity (granulomatous hepatitis) [8]: 0
- Hepatotoxicity (association with vascular disease) [9]: 0
- Hepatotoxicity (steatosis) [10]: 0
- Hepatotoxicity (successful reintroduction) [11]: yes
- Hepatotoxicity (cytolytic) [12]: 3
- Hepatotoxicity (cirrhosis) [13]: 0
- Hepatotoxicity (acute) [14]: 4
- Hepatotoxicity (moderate) [15]: 1
- Hepatotoxicity (time to onset) [16]: 2 days - 2 months

Structure (SMILES): C[C@H]1C[C@@H]2[C@H]([C@@H](O)C[C@@]3(C)[C@H]2CC[C@]3(O)C(=O)CO)[C@@]2(C)C=CC(=O)C=C12 [METHYLPREDNISOLONE]
- Hepatotoxicity (acute) [1]: 0%
- Hepatotoxicity (choleostasis) [2]: 0
- Hepatotoxicity (severe hepatitis) [3]: 0
- Hepatotoxicity (chronic liver disease) [4]: 0
- Hepatotoxicity (benign tumour) [5]: 0
- Hepatotoxicity (moderate) [6]: 0%
- Hepatotoxicity (malignant tumour) [7]: 0
- Hepatotoxicity (granulomatous hepatitis) [8]: 0
- Hepatotoxicity (association with vascular disease) [9]: 0
- Hepatotoxicity (steatosis) [10]: 2
- Hepatotoxicity (successful reintroduction) [11]: yes
- Hepatotoxicity (cytolytic) [12]: 2
- Hepatotoxicity (cirrhosis) [13]: 0
- Hepatotoxicity (acute) [14]: 2
- Hepatotoxicity (moderate) [15]: 0
- Hepatotoxicity (time to onset) [16]: 40 days

Structure (SMILES): Nc1cc(N2CCCCC2)nc(N)[n+]1[O-] [MINOXIDIL]
- Hepatotoxicity (acute) [1]: 0%
- Hepatotoxicity (choleostasis) [2]: 0
- Hepatotoxicity (severe hepatitis) [3]: 0
- Hepatotoxicity (chronic liver disease) [4]: 0
- Hepatotoxicity (benign tumour) [5]: 0
- Hepatotoxicity (moderate) [6]: 4.3%
- Hepatotoxicity (malignant tumour) [7]: 0
- Hepatotoxicity (granulomatous hepatitis) [8]: 0
- Hepatotoxicity (association with vascular disease) [9]: 0
- Hepatotoxicity (steatosis) [10]: 0
- Hepatotoxicity (successful reintroduction) [11]: yes
- Hepatotoxicity (cytolytic) [12]: 0
- Hepatotoxicity (cirrhosis) [13]: 0
- Hepatotoxicity (acute) [14]: 0
- Hepatotoxicity (moderate) [15]: 5
- Hepatotoxicity (time to onset) [16]: 3 days - 1 year

Structure (SMILES): CCc1c(C)[nH]c2c1C(=O)C(CN1CCOCC1)CC2 (stereo not drawn) [MOLINDONE]
- Hepatotoxicity (acute) [1]: 0%
- Hepatotoxicity (choleostasis) [2]: 1
- Hepatotoxicity (severe hepatitis) [3]: 0
- Hepatotoxicity (chronic liver disease) [4]: 0
- Hepatotoxicity (benign tumour) [5]: 0
- Hepatotoxicity (moderate) [6]: 0%
- Hepatotoxicity (malignant tumour) [7]: 0
- Hepatotoxicity (granulomatous hepatitis) [8]: 0
- Hepatotoxicity (association with vascular disease) [9]: 0
- Hepatotoxicity (steatosis) [10]: 0
- Hepatotoxicity (successful reintroduction) [11]: yes
- Hepatotoxicity (cytolytic) [12]: 1
- Hepatotoxicity (cirrhosis) [13]: 0
- Hepatotoxicity (acute) [14]: 1
- Hepatotoxicity (moderate) [15]: 2
- Hepatotoxicity (time to onset) [16]: 1 month

Structure (SMILES): CN(C)Cc1ccc(CSCCN/C(=C\[N+](=O)[O-])NCc2ccc3c(c2)OCO3)o1 [NIPEROTIDINE]
- Hepatotoxicity (acute) ([1]; Liver): 0%
- Hepatotoxicity (choleostasis) ([2]; Liver): 2
- Hepatotoxicity (severe hepatitis) ([3]; Liver): 2
- Hepatotoxicity (chronic liver disease) [4]: 0
- Hepatotoxicity (benign tumour) [5]: 0
- Hepatotoxicity (moderate) ([6]; Liver): 0%
- Hepatotoxicity (malignant tumour) [7]: 0
- Hepatotoxicity (granulomatous hepatitis) ([8]; Liver): 0
- Hepatotoxicity (association with vascular disease) [9]: 0
- Hepatotoxicity (steatosis) [10]: 0
- Hepatotoxicity (successful reintroduction) [11]: yes
- Hepatotoxicity (cytolytic) ([12]; Liver): 2
- Hepatotoxicity (cirrhosis) [13]: 0
- Hepatotoxicity (acute) [14]: 2
- Hepatotoxicity (moderate) [15]: 0
- Hepatotoxicity (time to onset) [16]: 15 days - 7 months

Structure (SMILES): CC[C@]1(O)CC[C@H]2[C@@H]3CCC4=CC(=O)CC[C@@H]4[C@H]3CC[C@@]21C [NORETHANDROLONE]
- Hepatotoxicity (acute) [1]: 0%
- Hepatotoxicity (choleostasis) [2]: 6
- Hepatotoxicity (severe hepatitis) [3]: 2
- Hepatotoxicity (chronic liver disease) [4]: 0
- Hepatotoxicity (benign tumour) [5]: 2
- Hepatotoxicity (moderate) [6]: 24%
- Hepatotoxicity (malignant tumour) [7]: 1
- Hepatotoxicity (granulomatous hepatitis) [8]: 0
- Hepatotoxicity (association with vascular disease) [9]: 3
- Hepatotoxicity (steatosis) [10]: 0
- Hepatotoxicity (successful reintroduction) [11]: yes
- Hepatotoxicity (cytolytic) [12]: 0
- Hepatotoxicity (cirrhosis) [13]: 0
- Hepatotoxicity (acute) [14]: 11
- Hepatotoxicity (moderate) [15]: 3
- Hepatotoxicity (time to onset) [16]: 2 weeks - 4.5 years

Structure (SMILES): Cc1nccn1CC1CCc2c(c3ccccc3n2C)C1=O (stereo not drawn) [ONDANSETRON]
- Hepatotoxicity (acute) [1]: 0%
- Hepatotoxicity (choleostasis) [2]: 0
- Hepatotoxicity (severe hepatitis) [3]: 0
- Hepatotoxicity (chronic liver disease) [4]: 0
- Hepatotoxicity (benign tumour) [5]: 0
- Hepatotoxicity (moderate) [6]: 33%
- Hepatotoxicity (malignant tumour) [7]: 0
- Hepatotoxicity (granulomatous hepatitis) [8]: 0
- Hepatotoxicity (association with vascular disease) [9]: 0
- Hepatotoxicity (steatosis) [10]: 0
- Hepatotoxicity (successful reintroduction) [11]: yes
- Hepatotoxicity (cytolytic) [12]: 0
- Hepatotoxicity (cirrhosis) [13]: 0
- Hepatotoxicity (acute) [14]: 1
- Hepatotoxicity (moderate) [15]: 23
- Hepatotoxicity (time to onset) [16]: 8 days - 9 days

Structure (SMILES): C[C@]12C/C(=C/O)C(=O)C[C@@H]1CC[C@@H]1[C@@H]2CC[C@@]2(C)[C@H]1CC[C@]2(C)O [OXYMETHOLONE]
- Hepatotoxicity (acute) [1]: 52.8%
- Hepatotoxicity (choleostasis) [2]: 3
- Hepatotoxicity (severe hepatitis) [3]: 2
- Hepatotoxicity (chronic liver disease) [4]: 0
- Hepatotoxicity (benign tumour) [5]: 11
- Hepatotoxicity (moderate) [6]: 50%
- Hepatotoxicity (malignant tumour) [7]: 14
- Hepatotoxicity (granulomatous hepatitis) [8]: 0
- Hepatotoxicity (association with vascular disease) [9]: 12
- Hepatotoxicity (steatosis) [10]: 0
- Hepatotoxicity (successful reintroduction) [11]: yes
- Hepatotoxicity (cytolytic) [12]: 1
- Hepatotoxicity (cirrhosis) [13]: 0
- Hepatotoxicity (acute) [14]: 10
- Hepatotoxicity (moderate) [15]: 2
- Hepatotoxicity (time to onset) [16]: 11 days - 15 years

Structure (SMILES): C1CNCCN1 [PIPERAZINE]
- Hepatotoxicity (acute) ([1]; Liver): 0%
- Hepatotoxicity (choleostasis) ([2]; Liver): 2
- Hepatotoxicity (severe hepatitis) ([3]; Liver): 0
- Hepatotoxicity (chronic liver disease) [4]: 0
- Hepatotoxicity (benign tumour) [5]: 0
- Hepatotoxicity (moderate) ([6]; Liver): 0%
- Hepatotoxicity (malignant tumour) [7]: 0
- Hepatotoxicity (granulomatous hepatitis) ([8]; Liver): 0
- Hepatotoxicity (association with vascular disease) [9]: 0
- Hepatotoxicity (steatosis) [10]: 0
- Hepatotoxicity (successful reintroduction) [11]: yes
- Hepatotoxicity (cytolytic) ([12]; Liver): 1
- Hepatotoxicity (cirrhosis) [13]: 0
- Hepatotoxicity (acute) [14]: 2
- Hepatotoxicity (moderate) [15]: 0
- Hepatotoxicity (time to onset) [16]: 3 weeks - 1 month

Structure (SMILES): CCCN(CCC)S(=O)(=O)c1ccc(C(=O)O)cc1 [PROBENECID]
- Hepatotoxicity (acute) [1]: 0%
- Hepatotoxicity (choleostasis) [2]: 0
- Hepatotoxicity (severe hepatitis) [3]: 1
- Hepatotoxicity (chronic liver disease) [4]: 0
- Hepatotoxicity (benign tumour) [5]: 0
- Hepatotoxicity (moderate) [6]: 0%
- Hepatotoxicity (malignant tumour) [7]: 0
- Hepatotoxicity (granulomatous hepatitis) [8]: 1
- Hepatotoxicity (association with vascular disease) [9]: 0
- Hepatotoxicity (steatosis) [10]: 0
- Hepatotoxicity (successful reintroduction) [11]: yes
- Hepatotoxicity (cytolytic) [12]: 1
- Hepatotoxicity (cirrhosis) [13]: 0
- Hepatotoxicity (acute) [14]: 1
- Hepatotoxicity (moderate) [15]: 0
- Hepatotoxicity (time to onset) [16]: 2 years

Structure (SMILES): CC(NCCc1ccc(O)cc1)C(O)c1ccc(O)cc1 (stereo not drawn) [RITODRINE]
- Hepatotoxicity (acute) [1]: 0.9%
- Hepatotoxicity (choleostasis) [2]: 1
- Hepatotoxicity (severe hepatitis) [3]: 0
- Hepatotoxicity (chronic liver disease) [4]: 0
- Hepatotoxicity (benign tumour) [5]: 0
- Hepatotoxicity (moderate) [6]: 40%
- Hepatotoxicity (malignant tumour) [7]: 0
- Hepatotoxicity (granulomatous hepatitis) [8]: 0
- Hepatotoxicity (association with vascular disease) [9]: 0
- Hepatotoxicity (steatosis) [10]: 0
- Hepatotoxicity (successful reintroduction) [11]: yes
- Hepatotoxicity (cytolytic) [12]: 6
- Hepatotoxicity (cirrhosis) [13]: 0
- Hepatotoxicity (acute) [14]: 6
- Hepatotoxicity (moderate) [15]: 6
- Hepatotoxicity (time to onset) [16]: 4 days - 9 weeks

Structure (SMILES): O=C1NS(=O)(=O)c2ccccc21 [SACCHARIN]
- Hepatotoxicity (acute) ([1]; Liver): 0%
- Hepatotoxicity (choleostasis) ([2]; Liver): 0
- Hepatotoxicity (severe hepatitis) ([3]; Liver): 0
- Hepatotoxicity (chronic liver disease) [4]: 0
- Hepatotoxicity (benign tumour) [5]: 0
- Hepatotoxicity (moderate) ([6]; Liver): 0%
- Hepatotoxicity (malignant tumour) [7]: 0
- Hepatotoxicity (granulomatous hepatitis) ([8]; Liver): 0
- Hepatotoxicity (association with vascular disease) [9]: 0
- Hepatotoxicity (steatosis) [10]: 0
- Hepatotoxicity (successful reintroduction) [11]: yes
- Hepatotoxicity (cytolytic) ([12]; Liver): 1
- Hepatotoxicity (cirrhosis) [13]: 0
- Hepatotoxicity (acute) [14]: 1
- Hepatotoxicity (moderate) [15]: 0
- Hepatotoxicity (time to onset) [16]: 2 weeks - 2 months
